Reference: patent publication US20070148110A1, “Aqueous-alcoholic depigmenting gels comprising mequinol and adapalene” (GALDERMA RESEARCH & DEVELOPMENT, priority 2004, published 2007)

Tested on: skin of the tail of the SKH2 mouse
Assay: Depigmenting activity on the skin of the tail of the SKH2 mouse
Type: in vivo
Set-up: key to depigmentation score: 0: natural pigmentation; −1: slight depigmentation; −2: moderate depigmentation; −3: marked depigmentation; −4: total depigmentation
Details: adapalene 0.1%; for depigmentation score: 4 weeks topical; for depigmenting effect: topical, after 4 weeks, mequinol 2%
Experimental: The purpose of the present study is to evaluate the depigmenting activity of a composition comprising either (i) 2% of mequinol, (ii) 0.1% of adapalene or (iii) the combination of both of them (composition according to the invention) on the skin of the tail of the SKH2 mouse after 4 weeks of topical application.
The two formulations gel and gel-cream are also compared. The two formulations (20 μl) are applied topically on the tails of SKH2 mice separated into two groups (female mice about 9 weeks old) at the rate of one application per day for 5 days over a period of 4 weeks.
Evaluation is based on various clinical observations: once a week, the pigmentation is evaluated as a score on a scale from 0 to 4. The basis of scoring is as follows: • 0: natural pigmentation Depigmentation scale: scores −1 to −4 • −1: slight depigmentation • −2: moderate depigmentation • −3: marked depigmentation • −4: total depigmentation

Compound	depigmentation score (gel formulation)	depigmentation score (gel-cream formulation)	depigmenting effect
COc1ccc(-c2ccc3cc(C(=O)O)ccc3c2)cc1C12CC3CC(CC(C3)C1)C2 [Adapalene, 6-[3-(1-adamantyl)-4-methoxyphenyl]-2-naphthoic acid]	0	0	does not have a depigmenting effect
COc1ccc(O)cc1 [Mequinol, 4-hydroxyanisole]			significant depigmenting effect
